Holding throughout (type): cell-based
One data set relates to NCI 60 cell line panel. As to the kind of experiment: NCI 60 cell line screen, full panel. The settings on record: for GI50: Homo sapiens; for LC50: read-out: LC50 (mean over NCI 60 panel). The text has this: (§1) The novel 3-haloazetidinone compounds 10e, 11n and 16d were selected by NCI for further biological evaluation in the NCI 60 cell line screen following an initial Tier 1 profiling screen. […]. these values were in the sub-micromolar range for all the cell lines tested except for the breast cancer cell line T-47D, where the progesterone receptors are not regulated by estradiol. […]. [table]

For a further data set, the system named is MDA-MB-231 cells. Description: Cell viability assay, antiproliferative activity. The settings on record: Homo sapiens, MDA-MB-231, 72 h, read-out: Antiproliferative Activity IC50 MDA-MB-231, 72 h. The text has this:
Selected β-lactam compounds were next evaluated in the triple negative cell line MDA-MB-231 (Table 4). […] These cancers are difficult to treat since they are generally not responsive to hormone therapies such as the selective oestrogen receptor modulator (SERM) tamoxifen, or aromatase inhibitors such as anastrozole, or to the monoclonal antibody Herceptin, which targets the HER2 receptor. There are fewer treatment options available for TNBC compared with ER+, PR+ and HER2+ breast cancers and the prognosis is poorer. […]. The human breast carcinoma cell line MCF-7 was purchased from the European Collection of Animal Cell Cultures (ECACC). Triple negative breast cancer Hs578T cells and its invasive variant Hs578Ts(i)8 were a kind gift from Dr. Susan McDonnell, School of Chemical and Bioprocess Engineering, University College Dublin. U266 cells were a gift from Dr. Tony McElligott, School of Medicine, St James’s Hospital, Trinity College Dublin. HT-29 cells were purchased from the European Collection of Cell Cultures (originating from a human adenocarcinoma of the colon). The human breast carcinoma cell line MDA-MB-231 and the HL-60 cells derived from a patient with acute myeloid leukaemia were both obtained from ECACC (Salisbury, UK). The SW-480 cells were a kind gift from Dr. Brian Flood, School of Biochemistry and Immunology, Trinity College Dublin. HEK-293T (normal epithelial embryonic kidney cells) were cultured in Dulbecco’s Modified Eagle’s Medium (DMEM) with GlutaMAXTM-I in the absence of non-essential amino acids. Human breast cancer MCF-7 cells and multiple myeloma U266 cells were cultured in Minimum Essential Media (MEM) with GlutaMAX™-I, supplemented with 1% (v/v) non-essential amino acids, 10% 2(v/v) foetal bovine serum (FBS) and 1% (v/v) penicillin/streptomycin 5000 U/mL. MDA-MB-231 cells were maintained in DMEM supplemented with 10% (v/v) foetal bovine serum, 2 mM L-glutamine and 100 μg/mL penicillin/streptomycin (complete medium). Colon cancer HT-29 and SW-480 and triple negative breast cancer Hs578T and its invasive variant Hs578T8i were cultured in DMEM with GlutaMAX™-I, with the same supplement in the absence of non-essential amino acids. Leukaemia HL-60 cancer cells were cultured in Roswell Park Memorial Institute Media (RPMI-1640) with GlutaMAX™-I, supplemented with 10% FCS media, and 100 μg/mL penicillin/streptomycin as above. Cell numbers were monitored using a haemocytometer. Cell culture flasks were incubated in a humidified incubator (5% CO2/95% air) at 37 °C. All cell lines were sub-cultured three times per week with trypsinisation using TrypLE Express (1X) required for adherent cell lines.
. All stock solutions and serial dilution in ethanol/DMSO were stored at -20 °C. All cells were seeded at a density of 2.5 × 10^4 cells/mL in a 96-well plate (200 μL per well). The cells were incubated in a […] atmosphere at 37 °C for 24 h, then treated with test compound (2 μL of stock solutions per 200-microlitre well) in ethanol to obtain a concentration range of 1 nM–200 μM for the study. The plates were then re-incubated for a further 72 h. Control wells contained an equivalent volume of the vehicle ethanol or DMSO (1% v/v). MTT cell viability assay: The culture medium was removed, and the cells were washed with phosphate buffered saline (PBS, […]). MTT (dissolved in PBS, […]) was added to obtain a final concentration of MTT (1 mg/mL). Cells were incubated at 37 °C for 3 h in the dark. Solubilisation was commenced by the addition of DMSO ([…]) and the cells were maintained at 20 °C in the dark for 20 min before reading the absorbance to ensure complete colour diffusion. The absorbance value of control cells (no added compound) was set to 100% cell viability and absorbance versus cell density per well was determined to assess cell viability using Graph-Pad Prism software. […]

Data set [1] in a line: NCI 60 cell line screen, full panel. The settings on record: human.
Text: as §1

The next data set concerns SF295. Description: NCI-60 5 dose screen, CNS Cancer. The settings on record: Homo sapiens, SF-295.
The next data set has as its system EKVX. Description: NCI-60 5 dose screen, NSC Lung Cancer. The conditions noted are these: Homo sapiens.
For another data set, the system named is RXF 393. Description: NCI-60 5 dose screen, Renal Cancer. The settings on record: Homo sapiens.
In a further data set the test system is BT-549. As to the kind of experiment: NCI-60 5 dose screen, Breast Cancer. The conditions noted are these: Homo sapiens.
Another data set concerns MDA-MB-468. Description: NCI-60 5 dose screen, Breast Cancer. The conditions noted are these: Homo sapiens.
The next data set relates to T-47D. Description: NCI-60 5 dose screen, Breast Cancer. The conditions noted are these: Homo sapiens, T47D.
The subject of a further data set is M14. Description: NCI-60 5 dose screen, Melanoma. The settings on record: Homo sapiens.
Another data set has as its system UO-31. Description: NCI-60 5 dose screen, Renal Cancer. The conditions noted are these: Homo sapiens.
For a further data set, the system named is SK-MEL-5. As to the kind of experiment: NCI-60 5 dose screen, Melanoma. The conditions noted are these: Homo sapiens.
The subject of the next data set is LOX IMV1. Description: NCI-60 5 dose screen, Melanoma. The settings on record: Homo sapiens.
The test system of another data set is NCI-H23. Description: NCI-60 5 dose screen, NSC Lung Cancer. The conditions noted are these: Homo sapiens.
Setting [2] is: 60 cell, NCI 60 panel mean, read-out: GI50 (mean over NCI 60 panel).
Setting [3] is: NCI 60 cancer cell line panel (mean over the panel), NCI 60 panel mean, read-out: LC50 (mean over NCI 60 panel).
Setting [4] is: 60 cell, NCI 60 panel mean, read-out: MID GI50 (full panel mean-graph mid-point).

Read-outs that look alike come from different tables or passages of the source.

With `COc1ccc(/C=C\c2cc(OC)c(OC)c(OC)c2)cc1O` [CA-4, Combretastatin A-4], in the data set on NCI 60 cell line panel (setting [2]), the GI50 is 0.099 µM. For the same molecule, in the data set with NCI 60 cell line panel (NCI 60 panel mean), the “TGI (mean over NCI 60 panel)” value is given as 10.30 µM. Moreover, the IC50 in the data set on MDA-MB-231 cells (10e and 11n results from NCI) stood at 0.043 µM.
`CCSc1ccc(C2C(Br)C(=O)N2c2cc(OC)c(OC)c(OC)c2)cc1` (stereo not drawn) [Compound 16d, 3-Bromo-4-(4-(ethylthio)phenyl)-1-(3,4,5-trimethoxyphenyl)azetidin-2-one]: the LC50 in [1] (setting [3]) was determined as 83.2 µM; with NCI 60 cell line panel (NCI 60 panel mean), 81.3 µM. Moreover, the 50% growth inhibitory concentration (GI50) was 0.407 µM in the data set on NCI 60 cell line panel (setting [4]); 0.087 µM in the data set with SF295 (SF295, read-out: GI50); 0.639 µM in the data set on EKVX (read-out: GI50); 0.17 µM with RXF 393 (read-out: GI50); 0.525 µM in the data set with BT-549 (read-out: GI50); 0.154 µM with MDA-MB-468 (read-out: GI50). Besides, the GI50 in the data set with T-47D (T-47D, read-out: GI50) amounted to 16.9 µM; in the data set on M14 (read-out: GI50), 0.128 µM; with UO-31 (read-out: GI50), 0.342 µM; with SK-MEL-5 (read-out: GI50), 0.0861 µM; in the data set with LOX IMV1 (read-out: GI50) it was 0.834 µM; with NCI-H23 (read-out: GI50), 0.478 µM.
With `COc1ccc(C2N(c3cc(OC)c(OC)c(OC)c3)C(=O)C2(Cl)Cl)cc1O` (stereo not drawn) [Compound 11n, 3,3-Dichloro-4-(3-hydroxy-4-methoxyphenyl)-1-(3,4,5-trimethoxyphenyl)azetidin-2-one], the LC50 in data set [1] (NCI 60 panel mean, read-out: LC50 (mean over NCI 60 panel)) was 91.2 µM; in data set [1] (all but one cell line for 10e, all but four cell lines for 11n, read-out: LC50 in individual cell lines) it was > 100 µM; in the data set on NCI 60 cell line panel (NCI 60 panel mean) it was 83.2 µM. Moreover, the GI50 with NCI 60 cell line panel (60 cell, read-out: GI50 (mean over NCI 60 panel), NCI 60 panel mean) is 0.0537 µM; in the data set on NCI 60 cell line panel (60 cell, read-out: GI50 in individual cell lines, 43 of the cell lines investigated), < 0.1 µM; with NCI 60 cell line panel (60 cell, read-out: GI50 value, CNS cancer cell lines), 0.0199 to 0.0514 µM; in the data set on NCI 60 cell line panel (60 cell, read-out: GI50 value, non-small cell lung cancer cell lines), 0.0164 to 0.0464 µM; with NCI 60 cell line panel (60 cell, read-out: GI50 value, prostate cancer cell lines), 0.0353 to 0.0359 µM; in the data set on NCI 60 cell line panel (60 cell, read-out: MID GI50 (full panel mean-graph mid-point), NCI 60 panel mean), 0.0537 µM. Further, the GI50 in the data set on NCI 60 cell line panel (read-out: GI50 value, breast cancer cell lines apart from T-47D) was 0.0226 to 0.0428 µM; in the data set on SF295, 0.0387 µM; in the data set on EKVX it was 0.0464 µM; with RXF 393 it was 0.03 µM; in the data set with BT-549, 0.0397 µM; with MDA-MB-468 it was 0.0226 µM. Also, the GI50 was found to be 11.6 µM with T-47D; 0.0313 µM with M14; 0.0821 µM with UO-31; 0.0225 µM with SK-MEL-5; 0.0415 µM with LOX IMV1; 0.0242 µM with NCI-H23. Also, in the data set on NCI 60 cell line panel (NCI 60 panel mean), the “TGI (mean over NCI 60 panel)” value is 10.00 µM. In the data set on MDA-MB-231 cells, the half-maximal inhibitory concentration (IC50) was 0.0316 µM.
In the case of `COc1ccc([C@H]2[C@H](Cl)C(=O)N2c2cc(OC)c(OC)c(OC)c2)cc1` (relative stereo) [Compound 10e trans, Trans-3-chloro-1-(3,4,5-trimethoxyphenyl)-4-(4-methoxyphenyl) azetidin-2-one], the 50% lethal concentration (LC50) is 81.3 µM in data set [1] (setting [3]); > 100 µM in [1] (NCI 60 cancer cell line panel, individual cell lines, all but one cell line for 10e, all but four cell lines for 11n, read-out: LC50 in individual cell lines); 91.2 µM in the data set on NCI 60 cell line panel (NCI 60 panel mean, listed as 10e). For the same molecule, the GI50 is 0.0741 µM in the data set with NCI 60 cell line panel (setting [2]); 0.0741 µM in the data set with NCI 60 cell line panel (setting [4]); 0.0254 µM in the data set on SF295 (SF295, read-out: GI50); 0.0694 µM in the data set on EKVX (read-out: GI50); 0.0271 µM in the data set with RXF 393 (read-out: GI50); 0.174 µM with BT-549 (read-out: GI50). For the same molecule, the concentration for 50% growth inhibition (GI50) was 0.0508 µM with MDA-MB-468 (read-out: GI50); 15.8 µM with T-47D (T-47D, read-out: GI50); 0.0396 µM with M14 (read-out: GI50); 0.0644 µM in the data set on UO-31 (read-out: GI50); 0.0312 µM with SK-MEL-5 (read-out: GI50); 0.0676 µM in the data set on LOX IMV1 (read-out: GI50). Moreover, the GI50 with NCI-H23 (read-out: GI50) worked out at 0.0312 µM. Moreover, the 50% inhibitory concentration (IC50) in the data set on MDA-MB-231 cells (10e and 11n results from NCI) was 0.0686 µM.

These data come from publication PMC8624998, “Synthesis and Antiproliferative Evaluation of 3-Chloroazetidin-2-ones with Antimitotic Activity: Heterocyclic Bridged Analogues of Combretastatin A-4” (Pharmaceuticals, 2021).
